Experimental data reported in patent USRE38117E1, “Trioxane dimer compound having antiproliferative and antitumor activities” (Hauser, Inc., priority 1995, dated 2003).

Tests used:
DU-145 = experiment: NCI 60 cell line screen (SRB), Prostate Cancer; assay type: cell-based; conditions: DU-145 (Prostate Cancer)
[1] = Stability at room temperature; assay type: physicochemical; conditions: crystalline solid
P388 leukemia = conditions: NCI Report on NSC 369397; cited from earlier work
[2] = test system: Ehrlich ascites tumor (EAT) cells; conditions: MTT assay, Woerdenbag et al. 1993; cited from earlier work
P. falciparum = conditions: two Hanian strains; Ye et al. 1983; cited from earlier work
[3] = cited from earlier work
60 cell line panel = conditions: cell line panels consisting of 60 lines; cited from earlier work
[4] = test system: Plasmodium vivax and Plasmodium falciparum; conditions: 2099 cases of malaria, different dosage forms of QHS; 1979 study; cited from earlier work
P. berghei = conditions: P. berghei-infected mice; Klayman 1985; cited from earlier work

| SMILES | Log10GI50 (DU-145) [M] | Log10LC50 (DU-145) [M] | Log10TGI (DU-145) [M] | stability [1] | activity against P388 leukemia (P388 leukemia) | ID50 / IC50 (drug concentration causing 50% growth inhibition of the tumor cells) [2] [µM] | potency in vitro compared with chloroquine (P. falciparum) | solubility in water [3] | anticancer activity (60 cell line panel) | clinical outcome [4] | SD90 (parasitemia 90 percent suppressed) (P. berghei) [mg/kg] |
| --- | --- | --- | --- | --- | --- | --- | --- | --- | --- | --- | --- |
| COC1OC2(C)CCC3CCCC(CCOC(=O)c4cccc(C(=O)OCCC5CCCC6CCC7(C)OOC56C(OC)O7)c4)C31OO2 (centres unmarked) [Compound 10, Trioxane Bis-ester Dimer] | −4.53 | >−4.30 | >−4.30 | stable for prolonged periods at room temperature | – | – | – | – | – | – | – |
| CC(=O)O[C@H]1C(=O)[C@@]2(C)[C@H]([C@H](OC(=O)c3ccccc3)[C@]3(O)C[C@H](OC(=O)[C@H](O)[C@@H](NC(=O)c4ccccc4)c4ccccc4)C(C)=C1C3(C)C)[C@]1(OC(C)=O)CO[C@@H]1C[C@@H]2O [Paclitaxel, paclitaxel, reference compound] | −9.38 | >−4.00 | >−4.00 | – | – | – | – | – | – | – | – |
| C[C@@H]1CC[C@H]2[C@@H](C)C(=O)O[C@@H]3O[C@@]4(C)CC[C@@H]1[C@]32OO4 [QHS, 3,6,9-trimethyl-9,10b-epidioxyperhydropyrano[4,3,2-jk]benzoxepin-2-one, reference compound] | – | – | – | – | inactive | 29.8 | comparable to that of chloroquine | insolubility in water | very little anticancer activity | clinical cure of all patients | 6.20 |
